For 22 molecules, Emax and IC50 results are on record in patent publication US11524938B2, “Aromatic sulfonamide derivatives” (Bayer Pharma Aktiengesellschaft, priority 2016, dated 2022).

This assay deals with T1, human P2X4 (Homo sapiens, UniProt Q99571).
T1 sequence (Q99571 1-388): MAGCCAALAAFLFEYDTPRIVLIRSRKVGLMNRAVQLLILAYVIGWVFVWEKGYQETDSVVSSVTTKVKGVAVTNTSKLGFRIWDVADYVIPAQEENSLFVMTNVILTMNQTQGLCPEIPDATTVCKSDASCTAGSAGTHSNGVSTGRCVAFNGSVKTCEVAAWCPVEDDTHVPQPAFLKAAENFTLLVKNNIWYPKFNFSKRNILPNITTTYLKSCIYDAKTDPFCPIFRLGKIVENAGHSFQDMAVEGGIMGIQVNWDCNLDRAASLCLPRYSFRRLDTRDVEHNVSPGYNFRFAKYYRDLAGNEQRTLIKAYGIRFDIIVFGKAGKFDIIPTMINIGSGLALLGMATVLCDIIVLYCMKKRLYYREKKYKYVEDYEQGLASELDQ
Description: Human P2X4 HEK Cell FLIPR Assay. Format: cell-based. The note with it: agonist Bz-ATP at EC80; for Emax: HEK293, HEK293 cells, percentage of maximal inhibition, read-out: Human P2X4 HEK Cells (FLIPR Assay) avg Efficacy [%]; for IC50: HEK293 cells, individual values listed where some fall outside detection range. The method, boiled down: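 Calcium flux read by FLIPR for 120 sec after Bz-ATP challenge at EC80 (established each assay day), following 30 min room-temperature compound preincubation in dye-loaded stable human P2X4 HEK293 cells. Peak RFU over basal normalized to agonist control; IC50, maximal inhibition and Hill coefficient from triplicate means.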

On to `NS(=O)(=O)c1cc(NC(=O)Cc2cc(F)cc(F)c2)ccc1-n1cc(C(F)(F)F)cn1` [Example 115, 2-(3,5-Difluorophenyl)-N-{3-sulfamoyl-4-[4-(trifluoromethyl)-1H-pyrazol-1-yl]phenyl}-acetamide], for which the Emax stood at 57% and the IC50 (commonly the concentration that gives 50% inhibition) was 802 nM.

For the molecule `NS(=O)(=O)c1cc(NC(=O)Cc2c(Cl)cccc2Cl)ccc1-n1cc(C(F)(F)F)cn1` [Example 116, 2-(2,6-Dichlorophenyl)-N-{3-sulfamoyl-4-[4-(trifluoromethyl)-1H-pyrazol-1-yl]phenyl}-acetamide], the Emax came out at 75% and the IC50 was determined as 155 nM.

As to `NS(=O)(=O)c1cc(NC(=O)Cc2ccccc2Br)ccc1-n1cc(C(F)(F)F)cn1` [Example 117, 2-(2-Bromophenyl)-N-{3-sulfamoyl-4-[4-(trifluoromethyl)-1H-pyrazol-1-yl]phenyl}-acetamide], the Emax stood at 66% and the IC50 stood at 102 nM.

As to `NS(=O)(=O)c1cc(NC(=O)Cc2ccc(F)c(F)c2)ccc1-n1cc(C(F)(F)F)cn1` [Example 118, 2-(3,4-Difluorophenyl)-N-{3-sulfamoyl-4-[4-(trifluoromethyl)-1H-pyrazol-1-yl]phenyl}-acetamide], the Emax came to 53% and the IC50 is 347 nM.

In the case of `NS(=O)(=O)c1cc(NC(=O)Cc2ccc(F)cc2)ccc1-n1cc(C(F)(F)F)cn1` [Example 119, 2-(4-Fluorophenyl)-N-{3-sulfamoyl-4-[4-(trifluoromethyl)-1H-pyrazol-1-yl]phenyl}-acetamide], the Emax is 55% and the IC50 was 270 nM.

Turning to `NS(=O)(=O)c1cc(NC(=O)Cc2cccc(Cl)c2)ccc1-n1cc(C(F)(F)F)cn1` [Example 120, 2-(3-Chlorophenyl)-N-{3-sulfamoyl-4-[4-(trifluoromethyl)-1H-pyrazol-1-yl]phenyl}-acetamide], the Emax is 31% and the IC50 is greater than 25000 nM.

As to `COc1ccc(CC(=O)Nc2ccc(-n3cc(C(F)(F)F)cn3)c(S(N)(=O)=O)c2)cc1` [Example 121, 2-(4-Methoxyphenyl)-N-{3-sulfamoyl-4-[4-(trifluoromethyl)-1H-pyrazol-1-yl]phenyl}-acetamide], the Emax turned out to be 70% and the IC50 is 292 nM.

With `NS(=O)(=O)c1cc(NC(=O)Cc2cccc(F)c2F)ccc1-n1cc(C(F)(F)F)cn1` [Example 122, 2-(2,3-Difluorophenyl)-N-{3-sulfamoyl-4-[4-(trifluoromethyl)-1H-pyrazol-1-yl]phenyl}-acetamide], the Emax was 88% and the IC50 came out at 266 nM.

With `Cc1ccccc1CC(=O)Nc1ccc(-n2cc(C(F)(F)F)cn2)c(S(N)(=O)=O)c1` [Example 123, 2-(2-Methylphenyl)-N-{3-sulfamoyl-4-[4-(trifluoromethyl)-1H-pyrazol-1-yl]phenyl}-acetamide], the Emax stood at 79% and the concentration for half-maximal inhibition (IC50) is 109 nM.

Regarding `Cc1cccc(CC(=O)Nc2ccc(-n3cc(C(F)(F)F)cn3)c(S(N)(=O)=O)c2)c1` [Example 124, 2-(3-Methylphenyl)-N-{3-sulfamoyl-4-[4-(trifluoromethyl)-1H-pyrazol-1-yl]phenyl}-acetamide], the Emax amounted to 62% and the IC50 is 166 nM.

With `NS(=O)(=O)c1cc(NC(=O)Cc2ccccc2OC(F)F)ccc1-n1cc(C(F)(F)F)cn1` [Example 125, 2-[2-(Difluoromethoxy)phenyl]-N-{3-sulfamoyl-4-[4-(trifluoromethyl)-1H-pyrazol-1-yl]phenyl}acetamide], the Emax was determined as 86% and the IC50 was determined as 292 nM.

Regarding `NS(=O)(=O)c1cc(NC(=O)Cc2cccnc2Cl)ccc1-n1cc(C(F)(F)F)cn1` [Example 126, 2-(2-Chloropyridin-3-yl)-N-{3-sulfamoyl-4-[4-(trifluoromethyl)-1H-pyrazol-1-yl]phenyl}acetamide], the Emax worked out at 92% and the IC50 turned out to be 1910 nM.

For the molecule `NS(=O)(=O)c1cc(NC(=O)Cc2ccc(F)cc2Cl)ccc1-n1cc(C(F)(F)F)cn1` [Example 127, 2-(2-Chloro-4-fluorophenyl)-N-{3-sulfamoyl-4-[4-(trifluoromethyl)-1H-pyrazol-1-yl]phenyl}acetamide], the Emax was determined as 85% and the IC50 was 209 nM.

On to `Cc1ccc(Cl)c(CC(=O)Nc2ccc(-n3cc(C(F)(F)F)cn3)c(S(N)(=O)=O)c2)c1` [Example 128, 2-(2-Chloro-5-methylphenyl)-N-{3-sulfamoyl-4-[4-(trifluoromethyl)-1H-pyrazol-1-yl]-phenyl}acetamide], for which the Emax was determined as 91% and the IC50 came out at 107 nM.

Turning to `NS(=O)(=O)c1cc(NC(=O)Cc2ccccc2OC(F)(F)F)ccc1-n1cc(C(F)(F)F)cn1` [Example 129, N-{3-Sulfamoyl-4-[4-(trifluoromethyl)-1H-pyrazol-1-yl]phenyl}-2-[2-(trifluoro-methoxy)phenyl]acetamide], the Emax was determined as 89% and the IC50 came to 157 nM.

For the molecule `NS(=O)(=O)c1cc(NC(=O)Cc2cc(F)c(F)cc2Cl)ccc1-n1cc(C(F)(F)F)cn1` [Example 130, 2-(2-Chloro-4,5-difluorophenyl)-N-{3-sulfamoyl-4-[4-(trifluoromethyl)-1H-pyrazol-1-yl]phenyl}acetamide], the Emax was found to be 71% and the IC50 is 284 nM.

`NS(=O)(=O)c1cc(NC(=O)Cc2cccc(C(F)(F)F)c2Cl)ccc1-n1cc(C(F)(F)F)cn1` [Example 131, 2-[2-Chloro-3-(trifluoromethyl)phenyl]-N-{3-sulfamoyl-4-[4-(trifluoromethyl)-1H-pyrazol-1-yl]phenyl}acetamide]: the Emax was found to be 58% and the 50% inhibitory concentration (IC50) was 155 nM.

`Cc1ccc(F)c(CC(=O)Nc2ccc(-n3cc(C(F)(F)F)cn3)c(S(N)(=O)=O)c2)c1Cl` [Example 132, 2-(2-Chloro-6-fluoro-3-methylphenyl)-N-{3-sulfamoyl-4-[4-(trifluoromethyl)-1H-pyrazol-1-yl]phenyl}acetamide]: the Emax was found to be 62% and the IC50 worked out at 80 nM.

Turning to `NS(=O)(=O)c1cc(NC(=O)Cc2c(F)ccc(F)c2Cl)ccc1-n1cc(C(F)(F)F)cn1` [Example 133, 2-(2-Chloro-3,6-difluorophenyl)-N-{3-sulfamoyl-4-[4-(trifluoromethyl)-1H-pyrazol-1-yl]phenyl}acetamide], the Emax stood at 82% and the IC50 was 107 nM.

With `NS(=O)(=O)c1cc(NC(=O)Cc2c(Cl)cccc2C(F)(F)F)ccc1-n1cc(C(F)(F)F)cn1` [Example 134, 2-[2-Chloro-6-(trifluoromethyl)phenyl]-N-{3-sulfamoyl-4-[4-(trifluoromethyl)-1H-pyrazol-1-yl]phenyl}acetamide], the Emax turned out to be 89% and the IC50 came out at 147 nM.

Regarding `COc1ccc(CC(=O)Nc2ccc(-n3cc(C(F)(F)F)cn3)c(S(N)(=O)=O)c2)c(Cl)c1` [Example 135, 2-(2-Chloro-4-methoxyphenyl)-N-{3-sulfamoyl-4-[4-(trifluoromethyl)-1H-pyrazol-1-yl]phenyl}acetamide], the Emax stood at 90% and the IC50 was 73 nM.

For the molecule `NS(=O)(=O)c1cc(NC(=O)Cc2cc(Cl)ccc2Cl)ccc1-n1cc(C(F)(F)F)cn1` [Example 136, 2-(2,5-Dichlorophenyl)-N-{3-sulfamoyl-4-[4-(trifluoromethyl)-1H-pyrazol-1-yl]phenyl}-acetamide], the Emax came to 84% and the IC50 was 211 nM.
